This is an account of results in article PMC6874683, “Pyrrothiogatain acts as an inhibitor of GATA family proteins and inhibits Th2 cell differentiation in vitro” (Scientific Reports, 2019).

Structures are written as SMILES.

One assay deals with Th2 cells. Description: Cytokine production of in vitro differentiated Th2 cells restimulated for 16 h (ELISA). The assay is classed as cell-based, mouse. The following applies: restimulated 16 h, 0 to 100 µM. Here is the method:
To clarify the effects of pyrrothiogatain on Th2 cell differentiation, naive CD4 T cells were purified and cultured under Th2 conditions in the presence or absence of pyrrothiogatain for 5 days, and then the Th2 cell differentiation status was determined by intracellular staining. The generation of IL-4-, IL-5-, and IL-13-producing Th2 cells was repressed by treatment with pyrrothiogatain (Fig. 5A). Decreased production and mRNA expression of IL-4, IL-5 and IL-13 were confirmed using ELISA and RT-qPCR, respectively (Fig. 5B,C). […] Next, we treated in vitro differentiated Th2 cells with pyrrothiogatain to test the effect of pyrrothiogatain on Th2 cytokine production. Total CD4^+ cells were cultured under Th2 conditions for 5 days, and then the Th2 cells were restimulated in the presence or absence of pyrrothiogatain for 16 h. […]
Figure 5 Pyrrothiogatain inhibits Th2 cell differentiation and production of Th2 cytokines. […] (B) Cytokine production induced in the pyrrothiogatain treated Th2 cells shown in panel (A) was determined by ELISA. (C) Quantitative RT-PCR analysis of the pyrrothiogatain-treated Th2 cells shown in panel (A). […] The amounts of IL-4, IL-5 and IL-13 in the culture supernatants were determined by ELSA. In (B), (C) and (E), all data are expressed as individual points of three independent experiments with error bars indicating standard deviation. […]

In the next assay the test system is GATA3 expression. Description: Immunoblot of GATA3, naive CD4+ T cells under Th2 conditions. The assay is classed as cell-based, mouse. To be noted: 80 µM, 5 days. Here is the method:
Figure 5 Pyrrothiogatain inhibits Th2 cell differentiation and production of Th2 cytokines. (A) Intracellular staining of IL-5/IL-13, IL-4/IFN-γ, and IL-2/IFN-γ in naive CD4^+ T cells cultured under Th2 conditions in the presence or absence of pyrrothiogatain (30 and 80 µM) for five days. (B) Cytokine production induced in the pyrrothiogatain treated Th2 cells shown in panel (A) was determined by ELISA. (C) Quantitative RT-PCR analysis of the pyrrothiogatain-treated Th2 cells shown in panel (A). (D) Immunoblot analysis of GATA3 in naive CD4^+ T cells cultured under Th2 conditions in the presence or absence of pyrrothiogatain (80 µM) for 5 days. (E) Cytokine production from Th2 cells stimulated with immobilized anti-TCRβ mAb for 16 h in the presence or absence of pyrrothiogatain (0 to 100 µM). The amounts of IL-4, IL-5 and IL-13 in the culture supernatants were determined by ELSA. In (B), (C) and (E), all data are expressed as individual points of three independent experiments with error bars indicating standard deviation. […]

For the compound `Cc1ccc(C)n1-c1ccsc1C(=O)O` [Pyrrothiogatain, 3-(2,5-dimethyl-1H-pyrrol-1-yl)thiophene-2-carboxylic acid], the “IL-4, IL-5 and IL-13 production of restimulated Th2 cells” value in the assay with Th2 cells was “decreased”. Further, in the assay on GATA3 expression, the “Expression of GATA3, protein level” value is listed as “not influenced”.
